This test concerns the target T1, Histamin-H2-Rezeptoren (Cavia porcellus, UniProt P47747).
T1 construct: in vitro am isolierten rechten Vorhof des Meerschweinchens; from tissue; host or cells: isolated right atrium of the guinea pig
Kind of test: Determination of pA2 values in vitro on the isolated right atrium of the guinea pig (H2-antagonistic activity). The class given is cell-based, Meerschweinchen. Conditions: read-out: pA2-Werte (converted).

The results in this text go back to patent EP0141119A2, “Sulfenamide derivatives, process for their preparation, and medicaments containing these compounds” (LUDWIG HEUMANN & CO GMBH, priority 1983, dated 1985).

SMILES strings stand for the structures.

T1 sequence (P47747 whole entry): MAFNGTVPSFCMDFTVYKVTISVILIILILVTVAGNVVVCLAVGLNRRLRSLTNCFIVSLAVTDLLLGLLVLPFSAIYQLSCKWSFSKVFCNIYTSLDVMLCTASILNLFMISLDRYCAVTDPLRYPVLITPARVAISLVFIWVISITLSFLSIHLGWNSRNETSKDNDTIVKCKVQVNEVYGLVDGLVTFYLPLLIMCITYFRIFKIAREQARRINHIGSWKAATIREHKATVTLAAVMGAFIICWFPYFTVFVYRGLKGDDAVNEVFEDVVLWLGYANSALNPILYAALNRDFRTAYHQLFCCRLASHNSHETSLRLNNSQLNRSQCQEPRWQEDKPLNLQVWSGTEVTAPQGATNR
Excerpt: Eine anerkannte Methode zur Bestimmung H2-antagonistischer Wirksamkeit ist die Ermittlung der pA2-Werte in vitro am isolierten rechten Vorhof des Meerschweinchens.

On to `CNC(=C[N+](=O)[O-])NCCSCc1ccc(CN(C)C)o1` [Ranitidin], for which the Kb was 155 nM.
The result for `Cc1ccc(SNc2nc(NCCCOc3cccc(CN4CCCCC4)c3)n(C)n2)cc1` [Beispiel 1, 1-Methyl-5-[3-[3-(1-piperidinylmethyl)phenoxy]propylamino]-3-(4-methyl-benzolsulfenamido)-1H-1,2,4-triazol] reads 1.58 nM.
